According to patent US20230083730A1, “Composition with Anti-Aging Properties and the Selection Method thereof” (Hemix Biotech Limited, priority 2021, published 2023):

Experiments:
[1] = test system: human bone marrow mesenchymal stem cells (MSCs); assay: human bone marrow mesenchymal stem cell viability assay (MTS); format: cell-based; conditions: 2 days treatment; FIG. 4
Experimental: Firstly, cells were cultured in 96-well plate and CellTiter 96® AQueous One Solution Cell Proliferation Assay (MTS) was used to carry out the cell viability assay. For human mesenchymal stem cells (MSCs), they were seeded and cultured in 96-well plate and treated with control, resveratrol, spermidine or combined treatment for 2 days. Human bone marrow mesenchymal stem cells (MSCs) were treated with four batches of chemical having different ingredients and concentrations of spermidine and resveratrol for two days under identical experimental conditions. The ingredients and concentrations of spermidine and resveratrol of the four different chemicals are: control blank, spermidine alone, resveratrol alone, and a combined use of spermidine and resveratrol.

Caenorhabditis elegans [2] = assay: Caenorhabditis elegans lifespan analysis; format: in vivo; conditions: 200 μM spermidine alone, 10 μM resveratrol alone, or both combined; FIG. 1a
Experimental: According to an embodiment of the present invention, i.e., a method for selecting a composition having anti-aging properties, step 1 of the method is to confirm the life-span enhancing effect of the composition by using Caenorhabditis elegans lifespan analysis. For chemical treatment in Caenorhabditis elegans, four batches of chemical with different ingredients and content were added to the nematode growth medium (NGM) dishes. The NGM with agarose was autoclaved and then cooled down to below 65° C. The NGM was then poured into 60 mm dishes and incubated at room temperature overnight. The solidified NGM dishes were stored at 4° C. Escherichia coli OP50 strain was used as the food source for C. elegans. A single colony of OP50 was incubated in 200 mL of lysogeny broth (LB) medium at 37° C. overnight. The OP50 was then killed by incubation at 65° C. for 30 minutes. The dead OP50 was spread throughout the surface of the NGM dishes. The NGM dishes with dead OP50 were stored at 4° C. for up to 2 weeks. The synchronization of C. elegans was carried out by the bleaching method. 20 L4 larvae were picked to each 60 mm dish with different chemical treatment and cultured at 20° C. They were monitored every day, and the number of living, dead and missing C. elegans were recorded. […]

Caenorhabditis elegans [3] = conditions: prior art literature; cited from earlier work

For `NCCCCNCCCN` [spermidine], the “cell viability of human bone marrow MSCs” value [1] is given as “can enhance cell viability”, the “life span of Caenorhabditis elegans” value (Caenorhabditis elegans [2]) is given as “higher than that of the control blank” and the “effective concentration to extend the lifespan of Caenorhabditis elegans” value (Caenorhabditis elegans [3]) is given as 200 µM.

In the case of `Oc1ccc(C=Cc2cc(O)cc(O)c2)cc1` [resveratrol, 3,5,4′-trihydroxystilbene], the “cell viability of human bone marrow MSCs” value [1] is given as “can enhance cell viability”, the “life span of Caenorhabditis elegans” value (Caenorhabditis elegans [2]) is given as “higher than that of the control blank” and the “effective concentration to extend the lifespan of Caenorhabditis elegans” value (Caenorhabditis elegans [3]) is given as 100 µM.
